# Earlier results in patent US20130324508A1, “BIOMARKER FOR PROSTATE CANCER AND METHOD OF USING THE SAME” (UNIVERSITY OF TENNESSEE RESEARCH FOUNDATION, priority 2012, published 2013).
# Columns and labels:
# [1] = system: PC-3; conditions: androgen-independent PC-3 cells; cited from earlier work
# [2] = system: DU145; conditions: androgen-independent DU145 cells; cited from earlier work
# [3] = system: LNCaP; conditions: androgen-dependent LNCaP cells; cited from earlier work
compound,measurement,setting,value
C[N+](C)(C)CCOC(N)=O [carbachol],ERK phosphorylation,[1],ERK phosphorylation is noted
same,ERK phosphorylation,[2],ERK phosphorylation is noted
same,ERK phosphorylation,[3],not
